Assay results published in patent publication US20260137807A1, “COMPOSITIONS AND METHODS FOR DELIVERING A MACROMOLECULE TO A CELL” (AstraZeneca AB, priority 2022, published 2026).

Key:
Assay type in all cases: cell-based
HeLa_Luc705 cells = assay: Splice switching activity assay, 24 hr SMC treatment, Examples 4B/4D
Protocol: (§1) HeLa_Luc705 cells were seeded in 96-well plates at 10,000 cells per well in growth media with 2 μM Luc705-SSO or 1 μM Luc705-SSO. The various SMCs were diluted directly into prepared growth media. After 24 hr to allow adherence and SSO internalization, 10 μl of diluted SMC was added into each well at indicated concentrations. For a positive control, SSOs were complexed with Lipofectamine 2000 for 30 min at RT and cells treated with a final concentration of 200 nM. ON concentrations above 200 nM would require LF2000 to be used in excess of the cells' toxicity threshold. After 24 hr treatment, cells were lysed with 0.1% TritonX-100 (Sigma Aldrich, cat no. X100) in 1× PBS (Gibco, cat no. 10010023).
For the detection of luciferase activity, 30 μL of cell lysate was transferred to white-walled plates. The luciferase intensity in each well was immediately measured via luminometer following auto-injection of 25 μL Luciferin substrate as per the Promega Firefly Luciferase Assay System. The timing parameters of photon measurements were optimized for this procedure.
as §1, with “The” for “HeLa_Luc705 cells were seeded in 96-well plates at 10,000 cells per well in growth media with 2 μM Luc705-SSO or 1 μM Luc705-SSO. The”

HeLa mCherry-Gal9 cells = assay: mCherry-GAL9 recruitment assay
Excerpt: (§2) All compounds were subjected to a mCherry-GAL9 recruitment assay. Under normal conditions, mCherry-GAL9 is homogenously dispersed in the cytosol. When an endosomal leakage event is detected, mCherry-GAL9 translocates to the damaged endosome (Du Rietz et al. (2020) Nat. Commun. 11:1809) The resulting localization pattern of discrete puncta can be visualized and quantitated.
(§3) HeLa and Huh7 cell lines stably expressing mCherry-GAL9 were generated as described by (bioRxiv) (Munson, M. et al. (2021) Communications Biology, 4(211): 1-14) and seeded into 384-well CellCarrier Ultra plates (PerkinElmer: 6007558) at 3000 or 3500 cells/well respectively, 16 h before experimental usage.
(§4) Dose-response curves of select compounds were generated using an Echo 655T acoustic dispenser (Labcyte) to dispense the indicated compounds into source plates (Greiner: 781280) containing growth media. At experimental start points, media containing appropriate compounds and doses was transferred to plates using a liquid handling robot (Agilent Bravo).
(§5) At assay endpoints, cells were washed 2× PBS at RT and fixed in 4% PFA (VWR: 9713.1000) for 15 mins/RT. Cells were washed a further 3× PBS before the addition of PBS+1 μg/ml Hoechst 33342 (ThermoFisher Scientific: H21492) for a minimum of 1 h before imaging.
(§6) Plates were imaged using a spinning-disk confocal microscope (Yokogawa: CV7000) with a 20× objective (NA 0.75). Images were processed utilizing Columbus image-analysis software (PerkinElmer: v2.9.0) to identify and quantify cells and mCherry-GAL9 structures. The resulting data were processed and normalized in Spotfire (Tibco: v10.3) and plotted in Prism (Graphpad: v8.0.1). Image panels were assembled using the FigureJ plugin for FIJI. (Mutterer and Zinck (2013) J. Microsc. 252(1):89-91).
(§7) Cells were subjected to a 10-point concentration dilution (0-15 μM) for 2 hours and then fixed and imaged (FIG. 3 and FIG. 4). Images were analyzed and curves were generated from both mCherry-GAL9 puncta quantitation and cell survival as determined by nuclear morphology (FIG. 5). The GAL9 recruitment response support the functional splice-switching data with SSOs, confirming the mCherry-GAL9 assay as a powerful tool for screening endosomolytic compounds and supporting the hypothesis that AZ2467 (Compound 6) and AZ4800 (Compound 2) promote SSO activity by inducing endosomal rupture. The GAL9 assay was again conducted, this time in live cells for 4 hours with select compounds for screening. Compounds were screened at 5 μM (FIG. 6-8) or 0.3125-10 μM (FIG. 35-38). FIG. 39 and FIG. 47 provide results for select compounds at various doses 0.3125-10 μM.

Huh7 mCherry-Gal9 cells = assay: mCherry-GAL9 recruitment assay
Excerpt: as §2, §3, §4, §5, §6, §7

[1] = system: different cell lines (mCherry-GAL9); assay: mCherry-GAL9 response between different cell lines; conditions: 0.31 to 10 μM, 2 hours post-dosing, FIG. 41 and 48
Protocol: All of the stable cell lines generated from HeLa and Huh7 cells were maintained and cultivated in Dulbecco's modified Eagle's medium (DMEM) with high glucose with GlutaMAX (Gibco, cat. no. 31966-021), 10% fetal bovine serum (gibco, cat. no. 10270-106), and 1% penicillin-streptomycin (gibco, cat. no. 15140-122) at 37° C., 5% CO2 in 95% humidity in T75 TC flask (Sarstedt, 83.3911.002). The cells were detached (trypsin 0.25% EDTA, 10 min) and passaged twice a week. HEK293 and HeLa, HepG2, Huh7 and U2OS mCherry-GAL9 cell lines were maintained in DMEM, NCI-H358 mCherry-GAL9 were maintained in RPMI (Gibco: 32430-027) and SH-SY5Y mCherry-GAL9 were maintained in DMEM/F12 (Gibco: 32430-027). All growth media was supplemented with 10% FBS and 1 μg/ml Puromycin (Gibco: A11138-03) to maintain reporter expression. All cells were routinely tested and mycoplasma negative.
HeLa and Huh7 cells were further submitted to the mCherry-GAL9-recruitment analysis with treatment with select compounds and observed for endosomal rupture at various time points (1 hour, 2 hours, and 16 hours). GAL9 response results at different doses (1.25-5 μM) of the selected compounds are shown in FIG. 33 (Huh7 cells) and FIG. 34 (HeLa cells). […] FIG. 40 further provides additional results comparing time (0.25 to 4 hours), dose of select compounds (0.31 to 10 μM) and GAL9 response in Huh7 cells. […]

In the case of `COc1nn(C2CCNCC2)cc1Nc1ncc(Cl)c(-n2ccc3c(C#N)cccc32)n1` [Compound 2], the “increase in SSO activity” value (HeLa_Luc705 cells; 2 μM Luc 705 SSO, FIG. 26) is reported as “induced an increase in SSO activity”, the “relocalisation of Gal9 from cytosolic to punctate” value (HeLa mCherry-Gal9 cells; 10-point dose titration, 2 hours, FIG. 3) is reported as “dose-dependent manner” and the “endosomal rupture, decrease of 488-SSO puncta” value (HeLa mCherry-Gal9 cells; FIG. 16A) is reported as “time and concentration-dependent manner”. For the same compound, the “quantitation of GAL9 (mCherry-GAL9 puncta)” value (HeLa mCherry-Gal9 cells; FIG. 17A) was “time and concentration-dependent responses”, the “window in concentration between induction of endosomal rupture and cytotoxicity” value (HeLa mCherry-Gal9 cells; HeLa, FIG. 5) was “narrow window” and the “quantitation of Gal9 recruitment over time” value (HeLa mCherry-Gal9 cells; HeLa, FIG. 8) was “time-dependent endosomal rupture”. The “A488-positive structures (A488-SSO) after treatment” value (HeLa mCherry-Gal9 cells; preloaded 1 μM A488-SSO, FIG. 15A) was “gradually disappeared over 2 hours”, the “relocalisation of Gal9 from cytosolic to punctate” value (Huh7 mCherry-Gal9 cells; 10-point dose titration, 2 hours, FIG. 4) was “dose-dependent manner” and the “Gal9 recruitment signal, puncta per relative nuclear signal” value (Huh7 mCherry-Gal9 cells; 60 min, Huh7) was “highest overall induced signal”. For the same compound, the “endosomal rupture, decrease of 488-SSO puncta” value (Huh7 mCherry-Gal9 cells; FIG. 16B) was “time and concentration-dependent manner”, the “quantitation of GAL9 (mCherry-GAL9 puncta)” value (Huh7 mCherry-Gal9 cells; FIG. 17B) was “time and concentration-dependent responses” and the “window in concentration between induction of endosomal rupture and cytotoxicity” value (Huh7 mCherry-Gal9 cells; Huh7, FIG. 5) was “narrow window”. The “quantitation of Gal9 recruitment over time” value (Huh7 mCherry-Gal9 cells; Huh7, FIG. 7) was “time-dependent endosomal rupture” and the “A488-positive structures (A488-SSO) after treatment” value (Huh7 mCherry-Gal9 cells; preloaded 1 μM A488-SSO, FIG. 15B) was “gradually disappeared over 2 hours”.
In the case of `COc1nn(C2CCNCC2)cc1Nc1ncc(F)c(-n2ccc3c(C#N)cccc32)n1` [Compound 4], the “increase in SSO activity” value (HeLa_Luc705 cells; 2 μM Luc 705 SSO, FIG. 24) is reported as “increase in SSO activity”, the “increase in SSO activity” value (HeLa_Luc705 cells; 2 μM Luc 705 SSO, FIG. 26) is reported as “induced an increase in SSO activity” and the “increase in SSO activity” value (HeLa_Luc705 cells; 2 μM SSO, FIG. 23A) is reported as “increase in SSO activity”. For the same compound, the “activity of the oligo as compared to oligo only” value (HeLa_Luc705 cells; 2.5 μM compound, 1 μM SSO, FIG. 27) was “enhanced activity of the oligo as compared to oligo only”, the “increase in SSO activity over 1 μM naked SSO” value (HeLa_Luc705 cells; higher concentrations of AZ3327, FIG. 23B) was “increase in SSO activity” and the “GAL9 response, rank among exemplified compounds” value (HeLa mCherry-Gal9 cells; doses 1.25-5 μM, 1, 2, 16 hours, FIG. 34) was “most potent response”. The “GAL9 response, rank” value (Huh7 mCherry-Gal9 cells; 0.25 to 4 hours, 0.31 to 10 μM, FIG. 40) was “most potent”, the dose from which GAL9+ responses are seen (Huh7 mCherry-Gal9 cells; after 15 mins, FIG. 40) was no less than 1.25 µM and the “GAL9 response, rank among exemplified compounds” value (Huh7 mCherry-Gal9 cells; doses 1.25-5 μM, 1, 2, 16 hours, FIG. 33) was “most potent response”. The “GAL9 response between different cell lines” value [1] was “GAL9 responses across multiple cell lines of diverse background origins”.
